Tests used:
11 β-HSD type 2 = molecular target: T1, 11 β-HSD type 2 (Rattus norvegicus, UniProt P50233); test: biochemical; conditions: rat kidney cytosol 150 μL, 60 min, 37° C., cortisol (F) to cortisone (E), vs control without inhibitor, means n=2; for inhibition at 10 µM: read-out: % […]→E ± SD, inhibitor 10 μM, read-out: % INHIBITION F→E ± SD
T1 construct: Both the kidneys and livers were homogenised on ice in PBS- sucrose buffer; tissue Harlan Olac, Bicester, Oxon, UK (rats); host or cells: rat kidney homogenate supernatant (Wistar rat)
T1 sequence (P50233 1-400): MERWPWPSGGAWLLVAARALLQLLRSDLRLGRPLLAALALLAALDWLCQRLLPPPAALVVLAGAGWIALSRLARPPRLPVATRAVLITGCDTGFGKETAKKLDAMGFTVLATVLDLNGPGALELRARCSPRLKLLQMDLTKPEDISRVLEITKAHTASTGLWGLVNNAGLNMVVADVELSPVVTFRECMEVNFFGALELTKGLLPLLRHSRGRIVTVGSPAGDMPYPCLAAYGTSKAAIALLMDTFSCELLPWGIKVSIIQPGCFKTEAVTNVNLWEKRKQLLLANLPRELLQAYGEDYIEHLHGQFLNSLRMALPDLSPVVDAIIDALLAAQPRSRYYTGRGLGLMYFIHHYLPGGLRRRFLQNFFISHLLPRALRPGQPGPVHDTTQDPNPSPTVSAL
Method: Enzymes—Rat livers and rat kidneys were obtained from normal Wistar rats (Harlan Olac, Bicester, Oxon,UK). Both the kidneys and livers were homogenised on ice in PBS- sucrose buffer (1 g/10 ml) using an Ultra-Turrax. After the livers and kidneys were homogenised the homogenate was centrifuged for five minutes at 4000 rpm. The supernatant obtained was removed and stored in glass vials at −20° C. The amount of protein per μl of rat liver and kidney cytosol was determined using the Bradford method.
The same procedure was used for the 11 β-HSD type 2 assay, the conversion F to E, to determine the amount of rat kidney to be used and the incubation time.
In these assays the influence of different inhibitors on the 11 β-HSD activity both in reductive (type 1) and oxidative (type 2) directions were assessed. In the reductive direction E is the substrate and F the product and visa versa in the case of oxidation. The method described here is for the oxidative direction.
The substrate solution contained about 50,000 cpm/ml ^3H—F in PBS-sucrose and 0.5 pM F. 1 ml of the substrate solution was added to each tube, the inhibitors were also added, at a 10 μM concentration, to each tube except to the “control” and “blank” tubes. 150 μL was added to all tubes except to the blanks, this was done to correct for the amount of ^3H[…]. The tubes were incubated for 60 minutes in a mechanically shaken water bath at 37° C. […] After incubation 50 μL of recovery was added to correct for the losses made in the next steps, containing 5000 cpm/50 μL of ^14C-E and 50 μg/50 μL of unlabelled E (to visualise the spot on the TLC-plate). The aqueous mixture was then extracted with 4 ml of ether (2×30 sec cycle, vortex mix). After freezing the aqueous phase, the ether (upper) layer was decanted into smaller tubes and evaporated at 45° C. until completely dry. The residue was then re-dissolved in 6 drops of ether and transferred to a TLC-plate. The TLC-plate was developed in chloroform:methanol (9:1 v/v) solvent system, the TLC-plate ran for about 90 minutes until the solvent front had moved about 18 cm. The position of the product E was visualised under UV-light and cut out from the TLC-plate and put into scintillation vials. Radioactivity was eluted over 5 minutes with 0.5 ml methanol. 0.5 ml of PBS- sucrose and 10 ml of Ecoscint were then added and vortex mixed before counting in the scintillation counter. Before counting the samples, two total activity vials were prepared. These contained 0.5 ml of the substrate solution, 50 μL of the recovery, 0.5 ml of methanol and 10 ml of Ecoscint. These two total activity vials were needed to determine the amount of ^14C-E and ^3H—F added in the beginning to make the calculations.
To look at the percentage of inhibition four different concentrations, 1, 5, 10 and 20 μM, were used. The method for both the rat liver, type 1 the reductive, and rat kidney, type 2 the oxidative, stay the same throughout the entire experiment.
In this experiment the influence of different inhibitors on the conversion E to F and F to E was determined. The reason why inhibition in both directions was examined was to make a comparison between the inhibitors and which type of 11 β-HSD they inhibit more. Thirty-two compounds were screened for their ability to inhibit 11 β-HSD type 1 (E to F) and type 2 (F to E). […] The percent of inhibition was calculated as the percentage of decrease in radio labelled ^3H-E and ^3H—F of product formed, compared with the control activity (the tubes without an inhibitor in it). All the results calculated are means, n=2.

11 β-HSD type 1 = molecular target: T2, 11 β-HSD type 1 (Rattus norvegicus, UniProt P16232); test: biochemical; type: biochemical; conditions: rat liver cytosol 25 μL, 90 min, 37° C., cortisone (E) to cortisol (F), vs control without inhibitor, means n=2; for inhibition at 10 µM: read-out: % […]→F ± SD, inhibitor 10 μM, read-out: % INHIBITION E→F ± SD
T2 construct: Both the kidneys and livers were homogenised on ice in PBS- sucrose buffer; tissue Harlan Olac, Bicester, Oxon, UK (rats); host or cells: rat liver homogenate supernatant (Wistar rat)
T2 sequence (P16232 whole entry): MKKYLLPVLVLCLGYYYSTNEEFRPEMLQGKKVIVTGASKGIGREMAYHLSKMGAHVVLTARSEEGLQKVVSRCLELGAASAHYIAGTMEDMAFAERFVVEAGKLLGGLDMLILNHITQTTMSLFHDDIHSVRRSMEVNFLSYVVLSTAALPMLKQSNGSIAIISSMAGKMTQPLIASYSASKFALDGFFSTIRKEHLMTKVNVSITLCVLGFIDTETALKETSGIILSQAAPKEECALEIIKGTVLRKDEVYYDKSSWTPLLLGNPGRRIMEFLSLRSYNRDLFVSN

| Compound | melting point | inhibition at 10 µM (11 β-HSD type 2) | % INHIBITION E→F ± SD (11 β-HSD type 1; inhibitor 10 μM, 10 µM) | inhibition at 10 µM (11 β-HSD type 1) | % INHIBITION F→E ± SD (11 β-HSD type 2; inhibitor 10 μM, 10 µM) |
| --- | --- | --- | --- | --- | --- |
| CC(=O)C1CCC2C3CCC4=CC(=O)CC[C@]4(C)C3[C@H](OCc3ccccc3)C[C@]12C (stereo partly drawn) [STX 185, 11α-Benzyloxyprogesterone] | 207 to 210 °C | 18.9 ± 4.2% | 16.1 ± 10.4% | 14% |  |
| CC(=O)C1CCC2C3CCC4=CC(=O)CC[C@]4(C)C3C(=O)C[C@]12C (stereo partly shown) [STX124, 11-Oxo-progesterone] | 182 to 183 °C | 92.6 ± 2.1% |  | 100 ± 6.8% |  |
| CC1(C)C2CC[C@]3(C)C(C(=O)C=C4[C@@H]5C[C@@](C)(C(=O)OCCc6ccccc6)CC[C@]5(C)CC[C@]43C)[C@@]2(C)CC[C@@H]1O (stereo partly shown) | 171 to 172 °C |  |  |  |  |
| CC1(C)C2CC[C@]3(C)C(CC=C4[C@@H]5C[C@@](C)(C(=O)OCc6ccccc6)CC[C@]5(C)CC[C@]43C)[C@@]2(C)CC[C@H]1O (stereo partly shown) | 151 to 152 °C |  |  |  |  |
| CC(O)C1CCC2C3CCC4=C[C@@H](O)CC[C@]4(C)C3[C@H](O)C[C@]12C (stereo in doubt) [STX125, 3,11,20-Trihydroxyproqesterone] | 122 to 125 °C | 72.2 ± 4.3% |  | 85.1 ± 3.4% |  |
| CCOC(=O)[C@@]1(C)CC[C@]2(C)CC[C@]3(C)C(=CC(=O)C4[C@@]5(C)CC[C@H](O)C(C)(C)C5CC[C@]43C)[C@@H]2C1 (stereo partly drawn) [STX196, 3β-hydroxy-11-oxo-18β-glycyrrhetinic acid ethyl ester] | 93 to 94 °C | 97.5 ± 1.37% |  | 80.7 ± 2.14% |  |
| CC1(C)C2CC[C@]3(C)C(CC=C4[C@@H]5C[C@@](C)(C(=O)OCC6CCCCC6)CC[C@]5(C)CC[C@]43C)[C@@]2(C)CC[C@@H]1O (stereo partly shown) | 133 to 134 °C |  |  |  |  |
| CC1(C)C2CC[C@]3(C)C(CC=C4[C@@H]5C[C@@](C)(C(=O)OCCc6ccccc6)CC[C@]5(C)CC[C@]43C)[C@@]2(C)CC[C@@H]1O (stereo partly shown) | 153 to 155 °C |  |  |  |  |
| CC(=O)O[C@H]1CC[C@@]2(C)C(CC[C@]3(C)C2CC=C2[C@@H]4C[C@@](C)(C(=O)OCc5ccccc5)CC[C@]4(C)CC[C@]23C)C1(C)C (stereo partly drawn) [STX 354, 11-Deoxo-3β-aectoxy-18β-glycyrrhetinic acid benzyl ester] | 207 to 208 °C | 13.6 ± 1.42% |  | -1.18 ± 9.22% |  |
| CC1(C)C2CC[C@]3(C)C(C(=O)C=C4[C@@H]5C[C@@](C)(C(=O)OCC6CCCCC6)CC[C@]5(C)CC[C@]43C)[C@@]2(C)CC[C@@H]1O (stereo partly drawn) [STX198, 3β-hydroxy-11-oxo-18β-glycyrrhetinic acid cyclohexylmethyl ester] | 98 to 99 °C | 33% |  | 52.3 ± 1.25% | 33.1 ± 1.838% |
| CC(C)OC(=O)[C@@]1(C)CC[C@]2(C)CC[C@]3(C)C(=CCC4[C@@]5(C)CC[C@H](O)C(C)(C)C5CC[C@]43C)[C@@H]2C1 (stereo partly shown) | 201 to 203 °C |  |  |  |  |
| COC(=O)[C@@]1(C)CC[C@]2(C)CC[C@]3(C)C(=CCC4[C@@]5(C)CC[C@H](O)C(C)(C)C5CC[C@]43C)[C@@H]2C1 (stereo partly shown) [DG 383 B] | 291 to 293 °C |  |  |  |  |
| COC(=O)[C@@]1(C)CC[C@]2(C)CC[C@]3(C)C(=CCC4[C@@]5(C)CCC(=O)C(C)(C)C5CC[C@]43C)[C@@H]2C1 (stereo partly shown) | 234 to 236 °C |  |  |  |  |
| CO[C@@H]1C[C@]2(C)C(C(C)=O)CCC2C2CCC3=CC(=O)CC[C@]3(C)C21 (stereo partly drawn) [STX193, 11α-Methoxyprogesterone] | 164 to 165 °C | 68.2 ± 3.68% |  | 48.1 ± 0.313% |  |
| CC(O)C1CCC2C3CCC4=C[C@@H](O)CC[C@]4(C)C3[C@H](OCc3ccccc3)C[C@]12C (stereo in doubt) [STX-126, 11α-benzyloxy-3,20-dihydroxyprogesterone] | 117 to 118 °C | 13.5 ± 2.97% |  | 33.8 ± 0.354% |  |
| CC(C)(C)OC(=O)[C@@]1(C)CC[C@]2(C)CC[C@]3(C)C(=CC(=O)C4[C@@]5(C)CC[C@@H](O)C(C)(C)C5CC[C@]43C)[C@@H]2C1 (stereo partly shown) | 95 to 97 °C |  |  |  |  |
